{"source": "paper PMC11358882", "about": "“Neuroprotective Effects of Phenolic Constituents from Drynariae Rhizoma” (Pharmaceuticals, 2024)", "key": {"AChE from electric eel": {"molecular_target": "T1, AChE from electric eel (Electrophorus electricus, UniProt O42275)", "T1 construct": "purchased Sigma-Aldrich Co., St. Louis, USA", "T1 sequence (O42275 24-633)": "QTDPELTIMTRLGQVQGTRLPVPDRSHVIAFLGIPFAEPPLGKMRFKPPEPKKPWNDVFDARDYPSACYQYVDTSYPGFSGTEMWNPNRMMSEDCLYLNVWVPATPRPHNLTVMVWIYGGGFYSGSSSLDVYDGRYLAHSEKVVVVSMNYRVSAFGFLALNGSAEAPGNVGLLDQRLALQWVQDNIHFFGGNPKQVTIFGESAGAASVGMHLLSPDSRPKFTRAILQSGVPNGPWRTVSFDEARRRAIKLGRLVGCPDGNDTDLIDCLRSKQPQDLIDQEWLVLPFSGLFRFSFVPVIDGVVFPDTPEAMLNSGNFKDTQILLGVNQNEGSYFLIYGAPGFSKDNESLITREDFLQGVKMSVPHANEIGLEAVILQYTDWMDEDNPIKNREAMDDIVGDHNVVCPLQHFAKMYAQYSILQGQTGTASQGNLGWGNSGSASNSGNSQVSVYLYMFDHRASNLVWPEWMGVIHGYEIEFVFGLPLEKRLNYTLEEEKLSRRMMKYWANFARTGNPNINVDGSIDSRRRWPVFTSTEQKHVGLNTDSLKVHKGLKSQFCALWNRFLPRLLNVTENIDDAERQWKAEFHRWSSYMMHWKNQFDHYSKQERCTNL", "test": "biochemical", "format": "biochemical", "settings": "isolated compounds; mean ± SD, n = 3; ND = no detection using test concentration; read-out: IC50 AChE", "description": "(§1) The AChE- and BChE-inhibitory, MTT, and Th T assays were analyzed using a UV–visible (VIS) spectrophotometer (Biotek, EPOCH2, Winooski, VT, USA), ensuring accurate measurements. For BACE1- and MAO-B-inhibitory assays, a multimode microplate reader (SpectraMax M3, Molecular Devices, San Jose, CA, USA) was employed, providing precise readings. Analytical-grade DMSO from DEAJUNG Chemical, Korea, served as a solvent in the bioassays. Reagents and solvents, including AChE from electric eel, acetylthiocholine iodide (ATCh), BChE from equine serum, S-butyrylthiocholine iodide (BTCh), 5,5′-dithiobis [2-nitrobenzoic acid] […] Additionally, the BACE1-inhibitory assay utilized the BACE1 (β-secretase) FRET assay kit from PanVera® Corporation, Madison, USA, while the MAO-B-inhibitory assay employed the MAO-B Inhibitor Screening Kit (Fluorometric) ab284511 from Abcam plc Co., Cambridge, UK.\n(§2) The inhibitory activities against cholinesterases (AChE and BChE) were evaluated using a spectrophotometric method previously developed by Ellman et al.. Specifically, ATCh and BTCh were used as substrates to measure the inhibitory effects on AChE and BChE, respectively. The assay mixture consisted of 140 μL of 0.1 M sodium phosphate buffer at pH 7.8, 20 μL of a 0.38 U/mL solution of either AChE or BChE, and 20 μL of the test sample solution. This mixture was thoroughly mixed and then incubated at room temperature for 15 min. […] Reactions were initiated by adding 10 μL of 0.5 mM DTNB and 10 μL of either 0.6 mM ATCh or BTCh. ChE-inhibitory activity was monitored by measuring the formation of the yellow 5-thio-2-nitrobenzoate anion at 412 nm over 15 min (Epoch, BioTek, Winooski, VT, USA), resulting from the reaction of DTNB and thiocholine released from ATCh or BTCh. All reactions were conducted in 96-well microplates and performed in triplicate. The percentage of inhibition (%) was determined using the following formula: inhibition (%)={(Ac−As)/Ac}×100 , where Ac represents the enzyme activity in the absence of the test sample, and As represents the enzyme activity in the presence of the test sample. The ChE-inhibitory activities of each sample were quantified in terms of IC50, which was calculated from the log–dose inhibition curve."}, "BChE from equine serum": {"molecular_target": "T2, BChE from equine serum (Equus caballus, UniProt P81908)", "T2 construct": "BChE from equine serum; purchased Sigma-Aldrich Co., St. Louis, USA; host or cells: equine serum", "T2 sequence (P81908 whole entry)": "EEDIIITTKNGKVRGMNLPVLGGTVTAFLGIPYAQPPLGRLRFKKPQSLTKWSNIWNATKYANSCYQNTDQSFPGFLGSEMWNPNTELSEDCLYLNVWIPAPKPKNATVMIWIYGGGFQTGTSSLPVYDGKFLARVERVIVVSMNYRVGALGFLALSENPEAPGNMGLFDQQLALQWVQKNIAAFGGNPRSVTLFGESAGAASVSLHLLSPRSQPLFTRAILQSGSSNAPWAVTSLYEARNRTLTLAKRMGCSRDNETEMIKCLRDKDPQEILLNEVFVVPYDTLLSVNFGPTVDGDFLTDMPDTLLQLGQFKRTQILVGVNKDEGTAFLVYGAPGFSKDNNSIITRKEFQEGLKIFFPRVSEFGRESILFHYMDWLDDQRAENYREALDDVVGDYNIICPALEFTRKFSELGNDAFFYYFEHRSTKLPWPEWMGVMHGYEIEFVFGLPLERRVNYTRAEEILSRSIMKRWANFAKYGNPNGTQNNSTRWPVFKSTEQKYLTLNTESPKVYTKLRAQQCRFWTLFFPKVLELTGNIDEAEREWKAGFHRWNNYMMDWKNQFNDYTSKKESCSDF", "test": "biochemical", "format": "biochemical", "settings": "isolated compounds; mean ± SD, n = 3; ND = no detection using test concentration; read-out: IC50 BChE", "description": "as §1, §2"}, "β-secretase": {"system": "β-secretase", "test": "Western blot of β-secretase levels in APP-CHO cells", "format": "cell-based, Chinese hamster", "settings": "1.0 μM, 24 h", "description": "APP-CHO cells were seeded in six-well plates at a density of 6 × 10^5 cells/1000 μL of medium per well and incubated at 37 °C overnight for cell attachment. Then, the medium was replaced with FBS-free RPMI 1640 for 1 h, followed by treatment with test samples at 37 °C. After 24 h, the cells were washed with PBS and lysed in Laemmli sample buffer. The collected cell lysates were boiled at 100 °C for 10 min. For Western blot analysis, 20 μg of proteins were separated by 7.5% SDS-PAGE and transferred to a PVDF membrane using Trans-Blot® Turbo TM (Bio-Rad, Hercules, CA, USA). The membrane was blocked with 5% skim milk in PBS for 1 h and incubated with primary antibodies overnight at 4 °C. The primary antibodies used were sAPPβ antibody, BACE1 antibody, and α-tubulin antibody diluted at 1:1000, 1:1000, and 1:25,000, respectively. After washing with PBS-T (0.1% Tween 20 in PBS) three times for 10 min each, secondary antibodies, diluted to 1:2500, were incubated for 1 h. Protein detection was performed using ECL solution reagent and protein visualization (ChemiDoc^TM XRS+., Bio-Rad, Hercules, CA, USA). The signal intensity of the bands was quantified and normalized to the signal intensity of the α-tubulin band. Results were expressed as a percentage of DMSO-treated control."}, "Aβ1-42": {"molecular_target": "T3, Aβ1-42 (Homo sapiens, UniProt P05067)", "T3 construct": "Aβ1-42 used for the Th T assay was purchased from GL Biochem, Shanghai, China; purchased GL Biochem, Shanghai, China", "T3 sequence (P05067 672-713 limits assumed)": "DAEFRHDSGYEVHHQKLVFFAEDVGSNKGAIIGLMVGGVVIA", "test": "Thioflavin T assay, Aβ aggregation", "format": "biochemical", "settings": "24 h, Aβ1-42 20 μM", "description": "The Th T assay was conducted to assess the aggregation of Aβ into oligomers and fibrils. Aβ1-42 was dissolved in DMSO at a concentration of 1 mg/mL, and test samples were also dissolved in DMSO. Aβ1-42 (20 μM) was incubated with various concentrations of test samples at 37 °C for 24 h to evaluate the effects of test samples on Aβ aggregation. Subsequently, 3 μM of Th T was added, and fluorescence was measured after 30 min using an E-max precision microplate reader with excitation at 442 nm and emission at 485 nm (Epoch, BioTek, Winooski, VT, USA). Aβ treated with DMSO only served as a control, and each assay was performed in triplicate. Then, the Th T assay was performed to assess the effects of test samples on the disaggregation of preformed Aβ aggregates. Briefly, 20 μM of Aβ1-42 was incubated at 37 °C for 24 h. Various concentrations of test samples were then added and incubated at 37 °C for an additional 24 h. Subsequently, 3 μM of Th T was added, and fluorescence was measured after 30 min using an E-max precision microplate reader with excitation at 442 nm and emission at 485 nm (Epoch, BioTek, Winooski, VT, USA). Aβ treated with DMSO only served as a control, and each assay was performed in triplicate."}}, "note": "Values joined by “and” are separate entries in the source; they are usually repeats but may differ in a detail not shown here. Equal entries are not always repeated."}
{"molecule": "C[C@@H]1O[C@@H](Oc2c(-c3ccc(O)cc3)oc3cc(O[C@@H]4O[C@H](CO)[C@@H](O)[C@H](O)[C@H]4O)cc(O)c3c2=O)[C@H](O)[C@H](O)[C@H]1O", "note": "[Compound 6, kaempferol 3-O-rhamnoside 7-O-glucoside]", "values": [{"measurement": "IC50", "setting": "AChE from electric eel", "value": "353.43 ± 0.32", "unit": "µM"}, {"measurement": "IC50", "setting": "BChE from equine serum", "value": "32.6 ± 5.66", "unit": "µM"}, {"measurement": "reduction of β-secretase levels compared to DMSO-treated controls", "setting": "β-secretase", "value": 30, "unit": "%"}, {"measurement": "decrease of Aβ aggregation relative to DMSO-treated control", "setting": "Aβ1-42; 1.0 μM", "value": "approximately 40%"}]}
{"molecule": "O=c1c(O[C@@H]2O[C@H](CO)[C@@H](O)[C@H](O)[C@H]2O)c(-c2ccc(O)cc2)oc2cc(O[C@@H]3O[C@@H](CO)[C@H](O)[C@H]3O)cc(O)c12", "note": "[Compound 7, kaempferol 3-o-b-d-glucopyranoside-7-o-a-L-arabinofuranoside]", "values": [{"measurement": "IC50", "setting": "AChE from electric eel", "value": "47.33 ± 0.22", "unit": "µM"}, {"measurement": "IC50", "setting": "BChE from equine serum", "value": "28.8 ± 0.31", "unit": "µM"}, {"measurement": "reduction of β-secretase levels compared to DMSO-treated controls", "setting": "β-secretase", "value": "40% and 30%"}, {"measurement": "Aβ aggregation reduced to % of the levels in the DMSO-treated control", "setting": "Aβ1-42; 0.5 μM", "value": "~55", "unit": "%"}, {"measurement": "decrease of Aβ aggregation relative to DMSO-treated control", "setting": "Aβ1-42; 0.5 μM", "value": 55, "unit": "%"}, {"measurement": "Aβ aggregation reduced to % of the levels in the DMSO-treated control", "setting": "Aβ1-42; 1.0 μM", "value": "approximately 80%"}, {"measurement": "decrease of Aβ aggregation relative to DMSO-treated control", "setting": "Aβ1-42; 1.0 μM", "value": "~80", "unit": "%"}]}
